Assay results: patent US4888333A, “Allymercaptoacetylsydnonimines, processes for their preparation, and their use” (Cassella Aktiengessellschaft, priority 1987, dated 1989)

test system: pulmonary artery of the guinea pig; assay: Relaxant effect: inhibition of CaCl2-triggered contraction of potassium-depolarized spiral strips of the pulmonary artery; format: cell-based; details: Cavia porcellus, calcium-free Tyrode's solution, 40 mmol/l potassium, 0.5 mmol/l CaCl2, mean of 4 to 6 vessel strips, read-out: IC50 (concentration of the test substance which inhibits contraction by 50%)
Description: The pharmacological action of the compounds of the formula I was established using a modification of the method of Godfraind and Kaba (Arch. Int. Pharmacodyn. Ther. 196, (Suppl) 35 to 49, 1972) and of Schumann et al. (Naunyn-Schmiedeberg's Arch. Pharmacol. 289, 409 to 481, 1975). This entails spiral strips of the pulmonary artery of the guinea pig being equilibrated in calcium-free Tyrode's solution and then depolarized with 40 mmol/l of potassium. Addition of 0.5 mmol/l of CaCl2 then triggers a contraction. The relaxant effect of the test substance is established by cumulative addition of concentrations in 1/2 log 10 steps. The concentration of the test substance which inhibits contraction by 50% (=IC50, mol/l) is established from the concentration/effect graph (abscissa: -log mol/l test substance, ordinate: % inhibition of the maximum contraction, mean of 4 to 6 vessel strips).

| Structure (SMILES) | IC50 |
| --- | --- |
| C=CCSCC(=O)[N-]c1c[n+](N2CCN(S(=O)(=O)N(C)C)CC2)no1 [Example 4, 3-(4-Dimethylaminosulphonyl-1-piperazinyl)-N-allylmercaptoacetylsydnonimine] | 30 µM |
| C=CCSCC(=O)[N-]c1c[n+](N2CCN(C(=O)OCC)CC2)no1 [Example 2, 3-(4-Ethoxycarbonyl-1-piperazinyl)-N-allylmercaptoacetylsydnonimine] | 80 µM |
| C=CCSCC(=O)[N-]c1c[n+](N2CCCCC2)no1 [Example 8, 3-Piperidino-N-allylmercaptoacetylsydnonimine] | 20 µM |
| C=CCSCC(=O)[N-]c1c[n+](N2CCOCC2)no1 [Example 1, 3-Morpholino-N-allylmercaptoacetylsydononimine] | 20 µM |
| CCOC(=O)[N-]c1cn(N2CCOCC2)n[o+]1 [Molsidomine, N-ethoxycarbonyl-3-morpholinosydnonimine, reference compound] | 100 µM |
| C=CCSCC(=O)[N-]c1c[n+](N2CCN(S(C)(=O)=O)CC2)no1 [Example 3, 3-(4-Methylsulphonyl-1-piperazinyl)-N-allylmercaptoacetylsydnonimine] | 30 µM |

Further compounds by falling IC50, results first:

| IC50 | Structure (SMILES) |
| --- | --- |
| 30 µM | C=CCSCC(=O)[N-]c1c[n+](N2CCS(=O)(=O)CC2)no1 [Example 5, 3-(1,1-Dioxotetrahydro-1,4-thiazin-4-yl)-N-allylmercaptoacetylsydnonimine] |
| 30 µM | C=CCSCC(=O)[N-]c1c[n+](N(C)C)no1 [Example 7, 3-Dimethylamino-N-allylmercaptoacetylsydnonimine] |
| 10 µM | C=CCSCC(=O)[N-]c1c[n+](N(C)C2CCS(=O)(=O)C2)no1 (stereo not shown) [Example 6, 3-(N-Methyl-N-1,1-dioxotetrahydro-3-thienylamino)-N-allylmercaptoacetylsydnonimine] |

same assay, conditions: calcium-free Tyrode's solution, 40 mmol/l potassium, 0.5 mmol/l CaCl2, mean of 4 to 6 vessel strips, read-out: IC50 (concentration of the test substance which inhibits contraction by 50%)

| IC50 | Structure (SMILES) |
| --- | --- |
| > 100 µM | CCOC(=O)[N-]c1cn(N2CCOCC2)n[o+]1 [Molsidomine, N-ethoxycarbonyl-3-morpholinosydnonimine, reference compound] |
